Assay results from PMC11859184, “Synthesis and Evaluation of ^68Ga- and ^177Lu-Labeled [diF-Pro^14]Bombesin(6−14) Analogs for Detection and Radioligand Therapy of Gastrin-Releasing Peptide Receptor-Expressing Cancer” (Pharmaceuticals, 2025).
Like-named read-outs stand apart in the source and are kept apart here.

Test: Ex vivo biodistribution of 177Lu-labeled ligands in PC-3 tumor-bearing mice
Settings: mouse, intravenous; for tissue uptake at 72 h: 72 h pi; for tissue uptake at 120 h: 120 h pi; for tissue uptake at 1 h: 1 h pi; for tissue uptake at 4 h: 4 h pi; for tissue uptake at 24 h: 24 h pi
Method: SPECT/CT imaging was conducted using an MI Labs (Houten, The Netherlands) U-SPECT-II/CT scanner with a custom-made ultra-high sensitivity big mouse collimator (2 mm pinhole size) following published procedure. The experiments were obtained in accordance with the same protocol established in the PET/CT imaging and ex vivo biodistributions section. The mice were used for SPECT/CT imaging and ex vivo biodistributions studies once the tumors reached a diameter of 5–8 mm. PC-3 tumor-bearing mice were sedated (2.5% isoflurane in O2) and injected with 31.4–36.9 MBq of the ^177Lu-labeled ligand through a lateral caudal tail vein. The mouse was imaged at 1, 4, 24, 72, and 120 h pi. At each time point, a 5 min CT scan was performed with 615 μA and 60 kV parameters for localization and attenuation, followed by two 30 min static SPECT scans in list mode with an energy window centered around 208 keV. The U-SPECT II software was used to reconstruct data, and the images were decay corrected to the time of injection with PMOD v 3.402 (PMOD Technologies GmbH, Fallanden, Switzerland).
For ex vivo biodistribution studies, the mice were injected with ~3–5 MBq of the ^177Lu-labeled ligand (n = 5). At 1, 4, 24, 72, and 120 h post-injection, the mice were anesthetized with 2% isoflurane, euthanized by CO2 inhalation, and the tissues/organs of interest were […] for radioactivity counting. The blocking study was performed at 1 h pi via co-injection of the ^177Lu-labeled ligand with 100 μg of [D-Phe^6,Leu-NHEt^13,des-Met^14]Bombesin(6–14).

[1] = heart, n = 5, read-out: Heart uptake
[2] = kidneys, n = 5, read-out: Kidneys uptake
[3] = large intestine, n = 5, read-out: Large intestine uptake
[4] = liver, n = 5, read-out: Liver uptake
[5] = lungs, n = 5, read-out: Lungs uptake
[6] = muscle, n = 5, read-out: Muscle uptake
[7] = pancreas, n = 5, read-out: Pancreas uptake
[8] = small intestine, n = 5, read-out: Small intestine uptake
[9] = spleen, n = 5, read-out: Spleen uptake
[10] = stomach, n = 5, read-out: Stomach uptake
[11] = testes, n = 5, read-out: Testes uptake

CC(C)C[C@H](NC(=O)[C@H](Cc1cnc[nH]1)N(C)C(=O)CNC(=O)[C@@H](NC(=O)[C@H](C)NC(=O)[C@H](Cc1c[nH]c2ccccc12)NC(=O)[C@H](CCC(N)=O)NC(=O)[C@@H](Cc1ccccc1)NC(=O)CN1CCC(NC(=O)CN2CCN(CC(=O)O)CCN(CC(=O)O)CCN(CC(=O)O)CC2)CC1)C(C)(C)C)C(=O)N1CC(F)(F)C[C@H]1C(N)=O [[^177Lu]Lu-LW02060, metal not drawn]
tissue uptake at 72 h [1]: 0.01 %ID/g | tissue uptake at 120 h [1]: 0.01 %ID/g | tissue uptake at 1 h (kidneys, 100 ug, blocked (100 µg GRPR antagonist co-injected), read-out: Kidneys uptake): 3.8 ± 0.85 %ID/g | tissue uptake at 1 h [2]: 3.62 ± 0.86 %ID/g | tissue uptake at 4 h [2]: 2.85 ± 0.29 %ID/g | tissue uptake at 24 h [2]: 1.06 ± 0.22 %ID/g | tissue uptake at 72 h [2]: 0.33 ± 0.03 %ID/g | tissue uptake at 120 h [2]: 0.15 ± 0.04 %ID/g | tissue uptake at 1 h (large intestine, 100 ug, blocked (100 µg GRPR antagonist co-injected), read-out: Large intestine uptake): 0.22 ± 0.04 %ID/g | tissue uptake at 1 h [3]: 0.49 ± 0.31 %ID/g | tissue uptake at 4 h [3]: 0.68 ± 0.12 %ID/g | tissue uptake at 24 h [3]: 0.43 ± 0.13 %ID/g | tissue uptake at 72 h [3]: 0.32 ± 0.14 %ID/g | tissue uptake at 120 h [3]: 0.05 ± 0.02 %ID/g | tissue uptake at 1 h (liver, 100 ug, blocked (100 µg GRPR antagonist co-injected), read-out: Liver uptake): 0.27 ± 0.03 %ID/g | tissue uptake at 1 h [4]: 0.47 ± 0.19 %ID/g | tissue uptake at 4 h [4]: 0.27 ± 0.06 %ID/g | tissue uptake at 24 h [4]: 0.14 ± 0.07 %ID/g | tissue uptake at 72 h [4]: 0.06 ± 0.01 %ID/g | tissue uptake at 120 h [4]: 0.07 ± 0.02 %ID/g | tissue uptake at 1 h (lungs, 100 ug, blocked (100 µg GRPR antagonist co-injected), read-out: Lungs uptake): 0.54 ± 0.17 %ID/g | tissue uptake at 1 h [5]: 0.57 ± 0.18 %ID/g | tissue uptake at 4 h [5]: 0.15 ± 0.04 %ID/g | tissue uptake at 24 h [5]: 0.06 ± 0.02 %ID/g | tissue uptake at 72 h [5]: 0.03 ± 0.01 %ID/g | tissue uptake at 120 h [5]: 0.02 %ID/g | tissue uptake at 1 h (muscle, 100 ug, blocked (100 µg GRPR antagonist co-injected), read-out: Muscle uptake): 0.15 ± 0.05 %ID/g | tissue uptake at 1 h [6]: 0.13 ± 0.05 %ID/g | tissue uptake at 4 h [6]: 0.05 ± 0.01 %ID/g | tissue uptake at 24 h [6]: 0.01 %ID/g | tissue uptake at 72 h [6]: 0.01 %ID/g | tissue uptake at 1 h (pancreas, 100 ug, blocked (100 µg GRPR antagonist co-injected), read-out: Pancreas uptake): 0.51 ± 0.12 %ID/g | tissue uptake at 1 h [7]: 2.64 ± 0.63 %ID/g | tissue uptake at 4 h [7]: 1.71 ± 0.08 %ID/g | tissue uptake at 24 h [7]: 1.04 ± 0.19 %ID/g | tissue uptake at 72 h [7]: 0.35 ± 0.08 %ID/g | tissue uptake at 120 h [7]: 0.11 ± 0.01 %ID/g | tissue uptake at 1 h (small intestine, 100 ug, blocked (100 µg GRPR antagonist co-injected), read-out: Small intestine uptake): 0.23 ± 0.06 %ID/g | tissue uptake at 1 h [8]: 0.67 ± 0.16 %ID/g | tissue uptake at 4 h [8]: 0.26 ± 0.04 %ID/g | tissue uptake at 24 h [8]: 0.13 ± 0.01 %ID/g | tissue uptake at 72 h [8]: 0.04 ± 0.01 %ID/g | tissue uptake at 120 h [8]: 0.02 ± 0.01 %ID/g | tissue uptake at 1 h (spleen, 100 ug, blocked (100 µg GRPR antagonist co-injected), read-out: Spleen uptake): 0.2 ± 0.06 %ID/g | tissue uptake at 1 h [9]: 0.46 ± 0.2 %ID/g | tissue uptake at 4 h [9]: 0.13 ± 0.03 %ID/g | tissue uptake at 24 h [9]: 0.09 ± 0.02 %ID/g | tissue uptake at 72 h [9]: 0.07 ± 0.02 %ID/g | tissue uptake at 120 h [9]: 0.05 ± 0.01 %ID/g | tissue uptake at 1 h (stomach, 100 ug, blocked (100 µg GRPR antagonist co-injected), read-out: Stomach uptake): 0.08 ± 0.03 %ID/g | tissue uptake at 1 h [10]: 0.29 ± 0.06 %ID/g | tissue uptake at 4 h [10]: 1.2 ± 1.55 %ID/g | tissue uptake at 24 h [10]: 0.12 ± 0.05 %ID/g | tissue uptake at 72 h [10]: 0.07 ± 0.02 %ID/g | tissue uptake at 120 h [10]: 0.03 ± 0.01 %ID/g | tissue uptake at 1 h (testes, 100 ug, blocked (100 µg GRPR antagonist co-injected), read-out: Testes uptake): 0.14 ± 0.05 %ID/g | tissue uptake at 1 h [11]: 0.18 ± 0.03 %ID/g | tissue uptake at 4 h [11]: 0.04 ± 0.01 %ID/g | tissue uptake at 24 h [11]: 0.02 %ID/g | tissue uptake at 72 h [11]: 0.02 ± 0.01 %ID/g | tissue uptake at 120 h [11]: 0.01 ± 0.01 %ID/g
